Laboratory results as given in patent US3950537A, “Gastrointestinally active thioureas” (Rohm and Haas Company, priority 1975, dated 1976).
Where a name gives a salt, the structure may show the parent alone.

Columns and labels:
[1] = tested on: diarrhea; assay: Antidiarrheal test (castor oil diarrhea); type: in vivo, Swiss-Webster mice (adult male); conditions: Mus musculus; oral, 1 h before castor oil; diarrhea noted 3 h later; maximum 30 mg./kg.; read-out: Antidiarrheal ED50 (inhibited diarrhea in 50% of the treated mice)
Description: In this test adult male Swiss-Webster mice weighing 30 to 40 g. were employed, using 6 mice per treatment. The test compound was administered orally in a dosage series with a maximum of 30 mg./kg. either in water if soluble or else in 0.5% methyl cellulose. One hour after treatment, each animal received a single dose of 0.3 ml. of castor oil, administered orally. The animals were then individually caged and provided food and water.

[2] = tested on: charcoal entering the cecum; assay: Antimotility test (charcoal entering the cecum); type: in vivo, mice (adult male); conditions: for ED50: Mus musculus, oral, 1 h before charcoal, examined 3.5 h after charcoal, maximum dosage 30 mg./kg., read-out: Antimotility ED50 (prevented the charcoal from entering the cecum in 50% of the treated mice); for found to be active in the antimotility tests: mice, in words
Description: Adult male mice weighing in the range of 20 to 30 g. were starved for 24 hours prior to the test. The animals were then treated orally with the test compound dissolved in water or suspended in methyl cellulose. One hour later, each animal was dosed with 0.2 ml. of a charcoal suspension consisting of 5% activated charcoal suspended in 0.25% methyl cellulose. The animals were sacrificed 3.5 hours after the charcoal administration and their cecums examined for the presence or absence of charcoal. […] A maximum dosage of 30 mg./kg. was used.

[3] = tested on: gastric secretion; assay: Antisecretory test (pyloric ligation, gastric secretion volume); type: in vivo, Wistar rats (adult female); conditions: for ED50: Rattus norvegicus, orally 1 hour prior to pyloric ligation or subcutaneously immediately after, 5 h after ligation, maximum dosage 10 mg./kg., read-out: Antisecretory Activity ED50 (50% reduction in the volume of gastric secretion); for found to be active in the antisecretory test: rats, pyloric ligation, in words
Description: Adult female Wistar rats weighing 140 to 160 g. were starved for 24 hours prior to the test. The animals were anaesthetized with ether, shaved on the abdomen, and a small midline incision made. The pylorus was exposed, ligated, and the wound subsequently closed with wound clips. The animals were treated with the test compound administered either orally 1 hour prior to pyloric ligation or subcutaneously immediately after ligation. The test compound was administered in distilled water or 0.5% methyl cellulose. Six animals were used for each treatment. Five hours following the ligation, the animals were sacrificed, the stomachs were carefully removed and opened, and the gastric contents measured for volume and titratable acidity. […] A maximum dosage of 10 mg./kg. was used for the test compounds.

Cc1ccccc1NC(=S)N(C)C [AA]
ED50 [1]: < 30 mg/kg | ED50 [2]: < 30 mg/kg | ED50 [3]: > 10 mg/kg

Cc1ccc(NC(=S)N(C)C)c(C)c1 [AB]
ED50 [1]: 3.8 mg/kg | ED50 [2]: 4.4 mg/kg | ED50 [3]: > 10 mg/kg

Cc1cccc(C)c1NC(=S)N(C)C [AC]
ED50 [2]: < 30 mg/kg | ED50 [3]: > 10 mg/kg

Cc1cc(Cl)ccc1NC(=S)N(C)C [AD]
ED50 [2]: < 30 mg/kg | ED50 [3]: > 10 mg/kg

CNC(=S)Nc1ccc(C)cc1C [AE]
ED50 [2]: > 30 mg/kg | ED50 [3]: > 10 mg/kg

CCNC(=S)Nc1ccc(C)cc1C [AF]
ED50 [2]: > 30 mg/kg | ED50 [3]: > 10 mg/kg

Cc1ccc(NC(=S)NCCN)c(C)c1 [AG]
ED50 [1]: 10 mg/kg | ED50 [2]: 13 mg/kg | ED50 [3]: > 10 mg/kg

Cc1ccc(NC(=S)NCCN(C)C)c(C)c1 [AH]
ED50 [1]: > 30 mg/kg | ED50 [2]: 20 mg/kg | ED50 [3]: > 10 mg/kg

Cc1cccc(C)c1NC(=S)NCCN [AI]
ED50 [1]: 11.5 mg/kg | ED50 [2]: 15.5 mg/kg | ED50 [3]: > 10 mg/kg

Cc1cc(Cl)ccc1NC(=S)NCCN [AJ]
ED50 [2]: 30 mg/kg | ED50 [3]: > 10 mg/kg

Cc1ccc(NC(=S)NCCS)c(C)c1 [AK]
ED50 [1]: > 30 mg/kg | ED50 [2]: 15 to 30 mg/kg | ED50 [3]: > 10 mg/kg

Cc1ccc(NC(=S)N(C)CCO)c(C)c1 [AL]
ED50 [1]: > 30 mg/kg | ED50 [2]: > 30 mg/kg | ED50 [3]: > 10 mg/kg

Cc1ccc(NC(=S)N(CCO)CCO)c(C)c1 [AM]
ED50 [1]: > 30 mg/kg | ED50 [2]: > 30 mg/kg | ED50 [3]: > 10 mg/kg

Cc1ccc(NC(=S)NC(C)CO)c(C)c1 (stereo not shown) [AN]
ED50 [2]: > 30 mg/kg | ED50 [3]: > 10 mg/kg

Cc1ccc(NC(=S)NC(C)(C)CO)c(C)c1 [AO]
ED50 [1]: > 30 mg/kg | ED50 [2]: < 30 mg/kg | ED50 [3]: > 10 mg/kg

Cc1ccc(NC(=S)NCC(C)O)c(C)c1 (stereo not shown) [AP]
ED50 [1]: > 30 mg/kg | ED50 [2]: > 30 mg/kg | ED50 [3]: > 10 mg/kg

Cc1ccc(NC(=S)NCCCO)c(C)c1 [AQ]
ED50 [1]: > 30 mg/kg | ED50 [2]: > 30 mg/kg | ED50 [3]: > 10 mg/kg

Cc1cccc(C)c1NC(=O)NCCO [AR]
ED50 [1]: > 30 mg/kg | ED50 [2]: > 30 mg/kg | ED50 [3]: > 10 mg/kg

Cc1ccccc1NC(=S)NCCO [A]
ED50 [1]: 7.8 mg/kg | ED50 [2]: 11.5 mg/kg | ED50 [3]: 3 to 10 mg/kg

CCc1ccccc1NC(=S)NCCO [B]
ED50 [1]: 15 to 30 mg/kg | ED50 [2]: > 15 mg/kg | ED50 [3]: > 10 mg/kg

CC(C)c1ccccc1NC(=S)NCCO [C]
ED50 [1]: > 30 mg/kg | ED50 [2]: > 30 mg/kg | ED50 [3]: > 10 mg/kg

Cc1ccc(NC(=S)NCCO)cc1 [D]
ED50 [2]: > 30 mg/kg

CN1CCCN=C1COC(=O)C(O)(c1ccccc1)C1CCCCC1 (stereo not shown) [Daricon, oxyphencyclimine hydrochloride, reference compound]
ED50 [1]: 50 mg/kg | ED50 [2]: 3.4 mg/kg | ED50 [3]: 2.4 mg/kg

Cc1cccc(NC(=S)NCCO)c1C [E]
ED50 [1]: 12.5 mg/kg | ED50 [2]: 5 mg/kg | ED50 [3]: 3 mg/kg

Cc1ccc(NC(=S)NCCO)c(C)c1 [F]
ED50 [1]: 10.5 mg/kg | ED50 [2]: 8.6 mg/kg | ED50 [3]: 0.5 to 1 mg/kg

Cc1ccc(C)c(NC(=S)NCCO)c1 [G]
ED50 [1]: > 30 mg/kg | ED50 [2]: > 30 mg/kg | ED50 [3]: > 10 mg/kg

Cc1cccc(C)c1NC(=S)NCCO [H]
ED50 [1]: 4.3 mg/kg | ED50 [2]: 2.4 mg/kg | ED50 [3]: 0.5 to 1 mg/kg

Cc1ccc(NC(=S)NCCO)cc1C [I]
ED50 [1]: > 30 mg/kg | ED50 [2]: > 30 mg/kg | ED50 [3]: > 10 mg/kg

Cc1cc(C)cc(NC(=S)NCCO)c1 [J]
ED50 [2]: > 30 mg/kg | ED50 [3]: > 10 mg/kg

Cc1c(Cl)cccc1NC(=S)NCCO [K]
ED50 [1]: < 30 mg/kg | ED50 [2]: 7.2 mg/kg | ED50 [3]: > 10 mg/kg

Cc1cc(Cl)ccc1NC(=S)NCCO [L]
ED50 [1]: < 30 mg/kg | ED50 [2]: 15 to 30 mg/kg | ED50 [3]: 1 to 3 mg/kg

CCOC(=O)C1(c2ccccc2)CCN(CCC(C#N)(c2ccccc2)c2ccccc2)CC1 [Lomotil, diphenoxylate hydrochloride, reference compound]
ED50 [1]: 9.9 mg/kg | ED50 [2]: 2 mg/kg

Cc1ccc(Cl)cc1NC(=S)NCCO [M]
ED50 [1]: 15 to 30 mg/kg | ED50 [2]: 7.4 mg/kg | ED50 [3]: > 10 mg/kg

Cc1cccc(Cl)c1NC(=S)NCCO [N]
ED50 [2]: < 30 mg/kg | ED50 [3]: > 10 mg/kg

Cc1cc(Br)ccc1NC(=S)NCCO [O]
ED50 [1]: > 30 mg/kg | ED50 [2]: 18.5 mg/kg | ED50 [3]: < 10 mg/kg

OCCNC(=S)Nc1ccc(Cl)cc1Cl [P]
ED50 [1]: > 30 mg/kg | ED50 [2]: > 30 mg/kg | ED50 [3]: > 10 mg/kg

Cc1ccccc1NC(=S)NCCO [Preparation A, 1-(2-methylphenyl)-3-(2-hydroxyethyl)thiourea]
found to be active in the antimotility tests [2]: active | found to be active in the antisecretory test [3]: active

Cc1ccccc1NC(=S)N(C)C [Preparation AA]
found to be active in the antimotility tests [2]: active

Cc1ccc(NC(=S)N(C)C)c(C)c1 [Preparation AB]
found to be active in the antimotility tests [2]: active

Cc1cccc(C)c1NC(=S)N(C)C [Preparation AC]
found to be active in the antimotility tests [2]: active

Cc1cc(Cl)ccc1NC(=S)N(C)C [Preparation AD, 1-(2-methyl-4-chlorophenyl)-3,3-dimethylthiourea]
found to be active in the antimotility tests [2]: active

Cc1ccc(NC(=S)NCCN)c(C)c1 [Preparation AG]
found to be active in the antimotility tests [2]: active

Cc1ccc(NC(=S)NCCN(C)C)c(C)c1 [Preparation AH, 1-(2,4-dimethylphenyl)-3-(2-dimethylaminoethyl)-thiourea]
found to be active in the antimotility tests [2]: active

Cc1cccc(C)c1NC(=S)NCCN [Preparation AI]
found to be active in the antimotility tests [2]: active

Cc1cc(Cl)ccc1NC(=S)NCCN [Preparation AJ]
found to be active in the antimotility tests [2]: active

CCc1ccccc1NC(=S)NCCO [Preparation B]
found to be active in the antimotility tests [2]: active

Cc1cccc(NC(=S)NCCO)c1C [Preparation E]
found to be active in the antimotility tests [2]: active | found to be active in the antisecretory test [3]: active

Cc1ccc(NC(=S)NCCO)c(C)c1 [Preparation F, 1-(2,4-dimethylphenyl)-3-(2-hydroxyethyl)-thiourea]
found to be active in the antimotility tests [2]: active | found to be active in the antisecretory test [3]: active

Cc1cccc(C)c1NC(=S)NCCO [Preparation H, 1-(2,6-dimethylphenyl)-3-(2-hydroxyethyl)thiourea]
found to be active in the antimotility tests [2]: active | found to be active in the antisecretory test [3]: active

Cc1c(Cl)cccc1NC(=S)NCCO [Preparation K]
found to be active in the antimotility tests [2]: active

Cc1cc(Cl)ccc1NC(=S)NCCO [Preparation L]
found to be active in the antimotility tests [2]: active | found to be active in the antisecretory test [3]: active

Cc1ccc(Cl)cc1NC(=S)NCCO [Preparation M]
found to be active in the antimotility tests [2]: active

Cc1cccc(Cl)c1NC(=S)NCCO [Preparation N]
found to be active in the antimotility tests [2]: active

Cc1cc(Br)ccc1NC(=S)NCCO [Preparation O]
found to be active in the antimotility tests [2]: active

COc1ccc(NC(=S)NCCO)c(C)c1 [Preparation R]
found to be active in the antimotility tests [2]: active

Cc1cc(C)c(NC(=S)NCCO)c(C)c1 [Preparation S]
found to be active in the antimotility tests [2]: active | found to be active in the antisecretory test [3]: active

OCCNC(=S)Nc1cccc2ccccc12 [Preparation T]
found to be active in the antimotility tests [2]: active

CC(C)[N+](C)(CCOC(=O)C1c2ccccc2Oc2ccccc21)C(C)C [Pro-Banthine, propantheline bromide, reference compound]
ED50 [1]: > 80 mg/kg | ED50 [2]: 14.7 mg/kg | ED50 [3]: 8 mg/kg

Cc1cc(O)ccc1NC(=S)NCCO [Q]
ED50 [1]: > 30 mg/kg | ED50 [2]: > 30 mg/kg | ED50 [3]: > 10 mg/kg

COc1ccc(NC(=S)NCCO)c(C)c1 [R]
ED50 [1]: 30 mg/kg | ED50 [2]: 12.5 mg/kg | ED50 [3]: > 10 mg/kg

Cc1cc(C)c(NC(=S)NCCO)c(C)c1 [S]
ED50 [1]: < 30 mg/kg | ED50 [2]: 6.4 mg/kg | ED50 [3]: < 10 mg/kg

OCCNC(=S)Nc1cccc2ccccc12 [T]
ED50 [1]: 15 to 30 mg/kg | ED50 [2]: 7 mg/kg

OCCNC(=S)Nc1ccc2ccccc2c1 [U]
ED50 [1]: > 30 mg/kg | ED50 [2]: > 30 mg/kg | ED50 [3]: > 10 mg/kg

CN1[C@@H]2CC[C@H]1C[C@@H](OC(=O)C(CO)c1ccccc1)C2 (stereo partly shown) [atropine, reference compound]
ED50 [1]: > 40 mg/kg | ED50 [2]: 9.8 mg/kg

COc1ccc2c3c1O[C@H]1[C@@H](O)C=C[C@H]4[C@@H](C2)N(C)CC[C@@]341 [codeine phosphate, reference compound]
ED50 [1]: 35 mg/kg | ED50 [2]: 29 mg/kg
